According to BigSolDB 2.1:

Oc1c(Cl)cc(Cl)c2cccnc12
solubility (mole fraction)
Conditions | 293.15 K | 298.15 K | 303.15 K | 308.15 K | 313.15 K | 318.15 K | 323.15 K | 328.15 K | 333.15 K
in 1,4-dioxane | 0.00523 | 0.0062 | 0.00736 | 0.0089 | 0.0106 | 0.0123 | 0.0146 | 0.017 | 0.0193
in DMF | 0.0132 | 0.016 | 0.0194 | 0.024 | 0.0294 | 0.0347 | 0.0408 | 0.0478 | 0.0555
in DMSO | 0.00296 | 0.00378 | 0.0048 | 0.00633 | 0.00793 | 0.00997 | 0.0123 | 0.0154 | 0.0188
in NMP | 0.00576 | 0.00683 | 0.00823 | 0.00963 | 0.0113 | 0.0137 | 0.0162 | 0.0188 | 0.022
in water | 1.02e-06 | 1.48e-06 | 2.03e-06 | 2.82e-06 | 3.82e-06 | 5e-06 | 6.86e-06 | 8.91e-06 | 1.15e-05
